Key:
[1] = LDH activity after freeze/thaw (colorimetric LDH activity assay); assay type: physicochemical; conditions: FIG. 12
Method: Supernatants and patient sera were analyzed for LDH enzymatic activity using a commercially available colorimetric assay according to the manufacturer's instructions (Sigma-Aldrich). Standard curves were generated using purified native LDH5.

[2] = tested on: primary human NK cells; assay: NKG2D expression and CD107a degranulation of primary human NK cells after incubation with LDH or lactate; assay type: cell-based; conditions: LDH 50 ug/mL or lactate 20 mM; 12 hour (NKG2D, NKp46) or 6 hour after IL-2 (CD107a)
Excerpt: FIG. 2. Biochemical purification of tumor-derived Lactate Dehydrogenase, expression in glioma cell lines and verification of LDH-mediated induction of NKG2D ligands on monocytes. (Panel A) Protein purification strategy. […] of U87 glioblastoma cell line supernatant were subjected to ammonium sulfate precipitation. Active fractions were passed over a phenyl Sepharose column and active fractions were then subjected to size exclusion (Superdex 200), followed by ion exchange (MonoS) before Mass Spectroscopy (MS) analysis. (Panel B) Following separation by chromatography, fractions were dialyzed into PBS and cultured with MHD (healthy monocytes) for 18 hours. Whole cell mRNA was reverse transcribed, and induction of MICB and ULBP-1 was analyzed relative to media alone controls. […] (Panel C) mRNA isolated from PBMC of healthy donors, 293T cells (as negative controls), and U87, U251, and SF767 glioma cell lines were analyzed for expression of LDHA and LDHB by qPCR. (Panel D) A 1:10 dilution of fresh, unfrozen glioblastoma cell line supernatants was analyzed for total LDH enzymatic activity and expressed as OD 495 nm. […] Eighteen hours later, mRNA was isolated and analyzed for MICA, MICB, and ULBP-1 by qPCR. […] Eighteen hours later, mRNA was isolated and analyzed for MICA, MICB and ULBP-1 by qPCR. […] Eighteen hours later, MICB (black bars) and ULBP-1 (gray bars) were measured by qPCR. […]

[3] = tested on: U87; assay: U87 mitochondrial function and viability after overnight LDH5; assay type: cell-based
Method: FIG. 30. U87 mitochondrial function. […] U87 were treated overnight with LDH5 then with controls 100 uM FCCP (depolarizer) or 200 ng/mL staurosporine (hyperpolarizer) for 10 min. Cells were then loaded with the mitochondrial membrane potential sensitive dye Mitotracker CMXRos for 15 min then fixed in 2% PF. Fluorescence intensity was measured by flow cytometry.
FIG. 31. U87 mitochondrial function. […] U87 were treated overnight with LDH5. Cells were fixed in 2% PF and immunostained with an anti-mitochondrial antibody and phalloidin (actin) Mitochondrial and cell surface area were calculated by Nuance software.
FIG. 32. U87 mitochondrial function. […] U87 were treated overnight with LDH5 then with 200 ng/mL staurosporine for 5 or 24 hours. Cells were then trypsinized, stained with Annexin 594 and analyzed by flow cytometry.
Experimental wells were pulsed with 50 ug/mL LDH-A488 for 24 hours as indicated (control wells received no LDH) at 37° C. Cells were treated for 2 min with 0.5M acetic acid+150 mM NaCl (pH 2.5), followed by 4 subsequent washes in RPMI+10% FBS. […] (See FIGS. 31-32).

[4] = tested on: glioblastoma cell line U87; assay: IL-6 gene expression in glioblastoma cell line U87; assay type: cell-based
[5] = U87 treated overnight with LDH5

LDH5: purified native lactate dehydrogenase isoenzyme 5, alpha only tetramer; fluorescently labeled in uptake tests
LDH-5 activity following freeze/thaw [1]: significantly reduced | NK cell NKG2D expression or degranulation [2]: neither lactate nor LDH-5 alone directly impacted | Viability / staurosporine induced apoptosis (Annexin) ([3]; U87 overnight LDH5, then 200 ng/mL staurosporine for 5 or 24 hours): does not reduce viability, nor rescue from staurosporine induced apoptosis | Mitochondrial membrane potential (Mitotracker CMXRos) [3, 5]: depolarizes mitochondrial membrane | Mitochondrial surface area [3, 5]: does not change | IL-6 gene expression [4]: induces IL-6 gene expression
